Patent US8470983B2, “L-sugar colon cleansing agent and uses thereof” (Aptalis Pharma Canada Inc., priority 2009, dated 2013)

Tests used:
[1] = Dissolution of L-glucose monohydrate versus anhydrous L-glucose in water with consumer-like stirring; format: physicochemical; conditions: for Time of stirring until sample fully dissolved: 53 g L-glucose monohydrate in 240 mL doubly distilled water; for Observation of undissolved solid / clumping / Appearance of final solution: 240 mL water
Protocol: The following describes methods for determining the increased dissolution rate of L-glucose monohydrate comprising compositions.
Each sample comprises approximately an equivalent amount of L-glucose on a weight basis. Carefully, to avoid agitation and mixing, doubly distilled water (240 mL) is added to each beaker. In one example, the solution is stirred immediately after addition of water. In a second example, the solutions are allowed to stand for 5 minutes before agitation. The stiffing was conducted in a manner duplicating the way a consumer is expected to stir a sample prior to use. The following Table summaries these experiments which were conducted in duplicate.

[2] = design: species or system mice, rats, dogs, rabbits, and monkeys; conditions: in vivo
Protocol: (§1) In preclinical studies, there was no metabolism of L-glucose in any mammalian species studied. […] The maximum tolerated dose in rats was determined to be 10% dietary level of L-glucose.

[3] = 90-day dietary study of L-glucose; format: in vivo
Protocol: as §1

[4] = Clinical studies of L-glucose absorption, elimination and tolerability; format: in vivo, human
[5] = Comparative Example 1: multicenter, double-blind, dose-range-finding study of L-glucose as colon-cleansing agent before colonoscopy; format: in vivo, human; conditions: single doses 12 g, 16 g, 20 g, 24 g
Protocol: A multicenter, double-blind, dose-range-finding study to evaluate the effectiveness and safety of L-glucose as a colon-cleansing agent before colonoscopy was conducted. Doses used in this study were 12 g, 16 g, 20 g, and 24 g. The assessment of the preparations was based on the scale used in Hsu et al., “Meta-analysis and cost comparison of polyethylene glycol lavage versus sodium phosphate for colonoscopy preparation,” Gastrointestinal Endoscopy 48(3):276-282, 1998, wherein small bits of fecal material in the colon were allowed in an “Excellent” score.

[6] = Comparative Example 2: randomized, single-blind study of L-glucose as bowel preparation before colonoscopy (GPA scale); format: in vivo, human
Protocol: (§2) Global Preparation Assessment
(§3) Excellent=clean colon or small volume of clear liquid
(§4) Good=moderate to large volume of clear to semiclear liquid
(§5) Fair=some semisolid stool suctioned or washed away
(§6) Poor=semisolid or solid stool unable to be suctioned or washed away
A randomized, single-blind study designed to determine the clinical effectiveness of L-glucose as a bowel preparation before colonoscopy was performed. Three dose regimens were evaluated: 24 g in the evening only, 30 g in the evening only, and 24 g in the evening followed by 12 g in the morning (36 g total). Here, Applicant's GPA scale described herein was used to evaluate the preparations. […] Clinical efficacy (defined as a combination of “excellent” and “good” assessments) for the split-dose schedule was 19/27 (70%), as compared to 7/31 (23%) in the single-dose schedule (p<0.001).
As noted above in the description of Applicant's GPA scale, the criteria for determining whether a preparation was deemed “excellent” or “good” was respectively defined as “clean colon or small volume of clear liquid” or “moderate to large volume of clear to semi-clear liquid.” These criteria are more stringent than the rating system used by Raymer et al. discussed supra since Raymer's “excellent” and “good” ratings were respectively defined as “no more than small bits of adherent fecal fluid” and “small amounts of feces or fluid not interfering with the examination.” Thus, Raymer's “excellent” rating would likely not qualify as even a “good” rating in Applicant's GPA scale.

[7] = Example 3: open-label, 2-site dose-escalating split-dose study of L-glucose before colonoscopy (GPA and RSS); format: in vivo, human
Excerpt: Applicants have relied upon a combination of a categorical, 4-point scale and a numerical, segmental scoring system to assess bowel cleansing quality (Balaban et al. “Low volume bowel preparation for colonoscopy: randomized, endoscopist-blinded trial of liquid sodium phosphate versus tablet sodium phosphate,” Am J Gastroenterol 98:827-32, 2003). The basic 4-point scale, known as the Global Preparation Assessment (GPA), is essentially the same as the original scale used in the first randomized controlled trial of PHOSPHO-SODA™ as a bowel cleansing agent published in 1990 by Vanner, et al. (“A randomized prospective trial comparing oral sodium phosphate with standard polyethylene glycol-based lavage solution (Golytely) in the preparation of patients for colonoscopy,” Am J Gastroenterol 85:422-7, 1990). The numerical scoring system, known as the Residual Stool Score (RSS), is a continuously variable, averaged segmental scoring instrument that assesses both the amount and consistency of residual stool before suctioning (a measure of the cathartic activity of the bowel cleansing regimen) as well as the percent of the bowel wall seen after washing and cleansing (a measure of the ultimate endpoint for bowel preparation success). The two scales are shown below.
as §2, §3, §4, §5, §6
This open-label, 2-site study employed a dose-escalating design using 3 split doses of L-glucose (24 g/24 g, 36 g/36 g, and 48 g/48 g). The doses were administered the night before and the morning of a scheduled colonoscopy. The study was conducted in Phase I facilities to control for administration of L-glucose and adherence to the dietary and hydration regimen.
Three dose cohorts of 24 subjects were evenly divided between males and females for each cohort. Subjects who were scheduled to undergo an elective colonoscopy, who met the study entrance criteria, and who gave their consent to participate in the study were enrolled. […] Each subject observed a strict diet and hydration regimen as part of the study medication administration.
The site pharmacist prepared the L-glucose preparation based on the study medication preparation manual provided. Each subject, regardless of dose cohort, received the dose in 8 ounces of water, which was to be consumed within a 10-minute period. Dose cohorts proceeded in a dose-escalating fashion starting with the lowest dose (24 g/24 g) and escalated according to a dose escalation decision tree.
The physician performing the colonoscopy utilized Applicant's GPA scale to evaluate the quality of bowel preparation as before suctioning and washing.
The Residual Stool Score (RSS) described above was also used to assess bowel cleansing in each of the 5 segments of the bowel (rectum, descending colon, transverse colon, ascending colon, and cecum). As noted, assessments included the amount of stool present, the consistency of the stool, and the estimated percentage of the bowel wall visualized in each segment.
For reasons of inadequate bowel preparation, sections of the bowel that were not directly examined during colonoscopy were rated as “poor” on all three measures listed previously.
A total of 24 subjects were enrolled into each of the three dose cohorts. All 72 subjects were included in the intent-to-treat (ITT) and safety populations.

[8] = 24-g single dose; Raymer scale; cited from earlier work
[9] = 5 min. delay before stirring, listed as L- glucose monohydrate^2, monohydrate
[10] = no delay before stirring, listed as L- glucose monohydrate^2, monohydrate
[11] = 24 g, 30 g, 24 g + 12 g regimens
[12] = Total of all three dose cohorts, ITT, N = 72

O.O=C[C@@H](O)[C@H](O)[C@@H](O)[C@@H](O)CO [L-glucose monohydrate]
Time of stirring until sample fully dissolved ([1]; 5 min. delay before stirring, listed as L- glucose monohydrate^1, monohydrate): Sample fully dissolved after 2.5 min. of stirring.
Time of stirring until sample fully dissolved [1, 9]: Fully dissolved after 1 min. of stirring. Final
Time of stirring until sample fully dissolved ([1]; no delay before stirring, listed as L- glucose monohydrate^1, monohydrate): Sample fully dissolved after 2.5 min. of stirring.
Time of stirring until sample fully dissolved [1, 10]: Fully dissolved after 2 min. of stirring. Final
Observation of undissolved solid / clumping ([1]; 5 min. delay before stirring): Several clusters of solid at 1 min. Final solution
Appearance of final solution [1, 9]: solution was clear, colorless and homogeneous
Observation of undissolved solid / clumping ([1]; no delay before stirring): Several clusters of solid at 1 min. Final solution
Appearance of final solution [1, 10]: solution was clear, colorless and homogeneous

O=C[C@@H](O)[C@H](O)[C@@H](O)[C@@H](O)CO [L-glucose]
Effect of food restriction on metabolism [2]: no significant effect
Major route of elimination [2]: urinary excretion
Metabolism of L-glucose [2]: no metabolism
Toxicity from continuous administration ([3]; rat, in vivo): no overt evidence of toxicity
Maximum tolerated dose ([3]; rats): 10 % dietary level
Metabolism by colonic bacteria ([4]; breath hydrogen in humans, comparable with in vitro studies): colonic bacteria do not metabolize L-glucose
Absorption from the intestine ([4]; human, in vivo): moderately absorbed
Glucose or insulin response after administration ([4]; human, in vivo): No significant glucose or insulin response
Lower gastrointestinal symptoms (cramping, gas/flatus) ([4]; human, in vivo): occurred in a majority of subjects, but symptoms were mild
Major routes of elimination ([4]; human, in vivo): fecal and urinary excretion
Mild upper gastrointestinal symptoms (vomiting, nausea, belching/rifting, bloating) ([4]; human, in vivo): occurred in a minority of subjects
Acceptability as a colonic cleanser [5]: not acceptable
Outcome of evening-only dose arms ([6]; 24 g and 30 g evening-only doses): suspended for lack of effectiveness
Changes in laboratory test results [6, 11]: no clinically significant changes
Commonly reported adverse events [6, 11]: generally absent or mild
Overall tolerance to the bowel preparation [6, 11]: good or very good
Clinical efficacy (combination of excellent and good GPA assessments) ([6]; single-dose schedule (24 g or 30 g evening only), 7/31 subjects): 23%
Clinical efficacy (combination of excellent and good GPA assessments) ([6]; split-dose schedule: 24 g evening followed by 12 g morning, 19/27 subjects): 70%
Global Preparation Assessment, Max ([7]; 24 g/24 g cohort, ITT, n = 24): 4.00
Global Preparation Assessment, Mean (SD) ([7]; 24 g/24 g cohort, ITT, n = 24): 3.29 (0.81)
Global Preparation Assessment, Median ([7]; 24 g/24 g cohort, ITT, n = 24): 3.50
Global Preparation Assessment, Min ([7]; 24 g/24 g cohort, ITT, n = 24): 2.00
Subjects with GPA Fair, number (percentage) ([7]; 24 g/24 g cohort, ITT, n = 24): 5 (20.8)
Subjects with GPA Good, number (percentage) ([7]; 24 g/24 g cohort, ITT, n = 24): 7 (29.2)
Subjects with GPA Poor, number (percentage) ([7]; 24 g/24 g cohort, ITT, n = 24): 0 (0.0)
Global Preparation Assessment, Max ([7]; 36 g/36 g cohort, ITT, n = 24): 4.00
Global Preparation Assessment, Median ([7]; 36 g/36 g cohort, ITT, n = 24): 4.00
Global Preparation Assessment, Min ([7]; 36 g/36 g cohort, ITT, n = 24): 1.00
Subjects with GPA Fair, number (percentage) ([7]; 36 g/36 g cohort, ITT, n = 24): 2 (8.3)
Subjects with GPA Good, number (percentage) ([7]; 36 g/36 g cohort, ITT, n = 24): 7 (29.2)
Global Preparation Assessment, Max ([7]; 48 g/48 g cohort, ITT, n = 24): 4.00
Global Preparation Assessment, Median ([7]; 48 g/48 g cohort, ITT, n = 24): 4.00
Global Preparation Assessment, Min ([7]; 48 g/48 g cohort, ITT, n = 24): 2.00
Subjects with GPA Fair, number (percentage) ([7]; 48 g/48 g cohort, ITT, n = 24): 1 (4.2)
Subjects with GPA Good, number (percentage) ([7]; 48 g/48 g cohort, ITT, n = 24): 1 (4.2)
Subjects with GPA Poor, number (percentage) ([7]; 48 g/48 g cohort, ITT, n = 24): 0 (0.0)
Efficacy compared among the three split doses ([7]; 48 g/48 g dose): greatest efficacy
Time to the first watery bowel movement, compared among doses ([7]; 48 g/48 g dose): shortest time to the first watery bowel movement
GPA, mean (SD) ([7]; Site 01, all dose cohorts): 3.68 (0.75)
Subjects who had a complete colonoscopy, number (percentage) ([7]; Site 01, all dose cohorts): 30 (96.8%)
Subjects with GPA rated poor, number (percentage) ([7]; Site 01, all dose cohorts): 1 (3.2%)
Subjects with GPA rated excellent ([7]; Site 01, all dose cohorts, 25 subjects): 80.7%
GPA, mean (SD) ([7]; Site 02, all dose cohorts): 3.41 (0.74)
Subjects who had a complete colonoscopy, number (percentage) ([7]; Site 02, all dose cohorts): 39 (95.1%)
Subjects with GPA rated excellent ([7]; Site 02, all dose cohorts, 23 subjects): 56.1%
Global Preparation Assessment, Max [7, 12]: 4.00
Global Preparation Assessment, Mean (SD) [7, 12]: 3.53 (0.75)^
Global Preparation Assessment, Median [7, 12]: 4.00
Global Preparation Assessment, Min [7, 12]: 1.00
Subjects with GPA Excellent, number (percentage) [7, 12]: 48 (66.7)
Subjects with GPA Fair, number (percentage) [7, 12]: 8 (11.1)
Subjects with GPA Good, number (percentage) [7, 12]: 15 (20.8)
Subjects with GPA Poor, number (percentage) [7, 12]: 1 (1.4)
Subjects who had a complete colonoscopy (to the level of the cecum), number (percentage) ([7]; in each dose cohort (24 g/24 g, 36 g/36 g, 48 g/48 g)): 23 (95.8%)
Subjects with colonoscopy preparation grade of excellent or good [8]: 80%
